Values after ≈ are worked out from the molar mass of the structure shown. Like-named read-outs stand apart in the source and are kept apart here.
Assays:
Assay in all cases: MIC, broth-microdilution (CLSI VET01-A4)
Assay type in all cases: cell-based
[1] = test system: Mannheimia haemolytica MH 13065 (XB0446-6003.9, BRD field isolate)
How it was run: (§1)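 MIC read by eye as lowest compound concentration without visible growth (no turbidity), interpreted per CLSI VET01-S3. Doubling-dilution broth-microdilution trays, run according to CLSI VET01-A4.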

[2] = test system: Mannheimia haemolytica MH 13093 (XB0472-6014.1, BRD field isolate)
How it was run: as §1

[3] = test system: Pasteurella multocida PM 12080 (IV102277-0093, BRD field isolate); conditions: Pasteurella multocida PM 12080; for MIC: read-out: MIC PM 12080
How it was run: (§2)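 Compounds were tested in microdilution trays as twofold serial dilutions. The MIC was taken as the lowest concentration with no turbidity visible to the unaided eye, and results were interpreted per CLSI VET01-S3.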

[4] = test system: Mannheimia haemolytica MH 12587 (1071, BRD field isolate, macrolide-resistance: erm+, E+); conditions: for MIC MH 12587: Mannheimia haemolytica MH 12587, macrolide-resistant
How it was run: as §2

[5] = test system: Pasteurella multocida PM 10775 (080130003051, BRD field isolate); conditions: Pasteurella multocida PM 10775
How it was run: as §2

[6] = test system: Mannheimia haemolytica MH 6357 (M7/2, reference strain, cattle infection strain); conditions: Mannheimia haemolytica MH 6357; read-out: MIC MH 6357
How it was run: as §2

[7] = test system: Pasteurella multocida PM 6267 (P 2225 (L386), reference strain, mouse infection strain); conditions: Pasteurella multocida PM 6267; for MIC: read-out: MIC PM 6267
How it was run: as §2

[8] = test system: Pasteurella multocida PM 6391 (ATCC 43137, reference strain); conditions: Pasteurella multocida PM 6391; for MIC: read-out: MIC PM 6391
How it was run: as §2

[9] = test system: Mannheimia haemolytica MH 10720 (154, BRD field isolate); conditions: Mannheimia haemolytica MH 10720; for MIC: read-out: MIC MH 10720
How it was run: as §2

[10] = test system: Mannheimia haemolytica MH 6374 (ATCC 33396, reference strain); conditions: Mannheimia haemolytica MH 6374, read-out: MIC MH 6374
How it was run: as §2

SMILES: CC(C)C(NC(=O)c1ccc(C#Cc2ccc(CNCc3ccco3)cc2)cc1)C(=O)NO (stereo not shown) [Compound 290]
- MIC [1]: 0.4 µM (≈ 0.178 µg/mL)
- MIC [2]: 0.4 µM (≈ 0.178 µg/mL)
- MIC [3]: 0.2 µM (≈ 0.0891 µg/mL)
- MIC MH 12587 [4]: 0.4 µM (≈ 0.178 µg/mL)
- MIC PM 10775 [5]: <=0.1 μM
- MIC [6]: 0.2 µM (≈ 0.0891 µg/mL)
- MIC PM 6267 [7]: <=0.1 μM
- MIC [8]: 0.4 µM (≈ 0.178 µg/mL)
- MIC MH 10720 [9]: <=0.1 μM
- MIC [10]: 0.4 µM (≈ 0.178 µg/mL)

SMILES: CC(C)C(NC(=O)c1ccc(C#Cc2ccc(CNC3CC3)cc2)cc1)C(=O)NO (stereo not shown) [Compound 144]
- MIC MH 13065 [1]: <=0.1 μM
- MIC [2]: 0.2 µM (≈ 0.0811 µg/mL)
- MIC PM 12080 [3]: <=0.1 μM
- MIC MH 12587 [4]: 0.2 µM (≈ 0.0811 µg/mL)
- MIC PM 10775 [5]: <=0.1 μM
- MIC [6]: 1.563 µM (≈ 0.634 µg/mL)
- MIC PM 6267 [7]: <=0.1 μM
- MIC [8]: 0.098 µM (≈ 0.0397 µg/mL)
- MIC MH 10720 [9]: <=0.1 μM
- MIC [10]: 0.195 µM (≈ 0.0791 µg/mL)

SMILES: C[C@@H](O)[C@H](NC(=O)c1ccc(C#Cc2ccc(CNC3CC3)cc2)cc1)C(=O)NO [C. 103]
- MIC [1]: 0.4 µM (≈ 0.163 µg/mL)
- MIC [2]: 1.6 µM (≈ 0.652 µg/mL)
- MIC PM 12080 [3]: <=0.1 μM
- MIC MH 12587 [4]: 0.8 µM (≈ 0.326 µg/mL)
- MIC PM 10775 [5]: <=0.1 μM
- MIC [6]: 0.391 µM (≈ 0.159 µg/mL)
- MIC PM 6267 [7]: <=0.1 μM
- MIC [8]: 0.195 µM (≈ 0.0795 µg/mL)
- MIC [9]: 0.2 µM (≈ 0.0815 µg/mL)
- MIC [10]: 0.195 µM (≈ 0.0795 µg/mL)

SMILES: CC(C)(O)[C@H](NC(=O)c1ccc(C#Cc2ccc(CNCc3ccncc3)cc2)cc1)C(=O)NO [Compound 651]
- MIC [1]: 0.2 µM (≈ 0.0945 µg/mL)
- MIC [2]: 0.4 µM (≈ 0.189 µg/mL)
- MIC PM 12080 [3]: <=0.1 μM
- MIC MH 12587 [4]: 0.4 µM (≈ 0.189 µg/mL)
- MIC PM 10775 [5]: <=0.1 μM
- MIC [6]: 0.4 µM (≈ 0.189 µg/mL)
- MIC PM 6267 [7]: <=0.1 μM
- MIC PM 6391 [8]: <=0.1 μM
- MIC MH 10720 [9]: <=0.1 μM
- MIC [10]: 0.2 µM (≈ 0.0945 µg/mL)

SMILES: CC(C)C(NC(=O)c1ccc(C#Cc2ccc(CNCc3cccs3)cc2)cc1)C(=O)NO (stereo not shown) [Compound 291]
- MIC [1]: 0.2 µM (≈ 0.0923 µg/mL)
- MIC [2]: 0.4 µM (≈ 0.185 µg/mL)
- MIC PM 12080 [3]: <=0.1 μM
- MIC MH 12587 [4]: 0.8 µM (≈ 0.369 µg/mL)
- MIC PM 10775 [5]: <=0.1 μM
- MIC [6]: 0.2 µM (≈ 0.0923 µg/mL)
- MIC PM 6267 [7]: <=0.1 μM
- MIC [8]: 0.2 µM (≈ 0.0923 µg/mL)
- MIC MH 10720 [9]: <=0.1 μM
- MIC [10]: 0.4 µM (≈ 0.185 µg/mL)

SMILES: CSC(C)(C)C(NC(=O)c1ccc(C#Cc2ccc(CNC3CC3)cc2)cc1)C(=O)NO (stereo not shown) [Compound 581]
- MIC [1]: 0.4 µM (≈ 0.181 µg/mL)
- MIC [2]: 0.4 µM (≈ 0.181 µg/mL)
- MIC PM 12080 [3]: <=0.1 μM
- MIC MH 12587 [4]: 1.6 µM (≈ 0.723 µg/mL)
- MIC PM 10775 [5]: <=0.1 μM
- MIC [6]: 0.4 µM (≈ 0.181 µg/mL)
- MIC PM 6267 [7]: <=0.1 μM
- MIC PM 6391 [8]: <=0.1 μM
- MIC MH 10720 [9]: <=0.1 μM
- MIC [10]: 0.8 µM (≈ 0.361 µg/mL)

SMILES: CCC(C)C(NC(=O)c1ccc(C#Cc2ccc(CNCc3cccnc3)cc2)cc1)C(=O)NO (stereo not shown) [Compound 299]
- MIC [1]: 0.8 µM (≈ 0.376 µg/mL)
- MIC [2]: 0.8 µM (≈ 0.376 µg/mL)
- MIC [3]: 0.4 µM (≈ 0.188 µg/mL)
- MIC MH 12587 [4]: 1.6 µM (≈ 0.753 µg/mL)
- MIC PM 10775 [5]: <=0.1 μM
- MIC [6]: 0.4 µM (≈ 0.188 µg/mL)
- MIC [7]: 0.2 µM (≈ 0.0941 µg/mL)
- MIC [8]: 1.6 µM (≈ 0.753 µg/mL)
- MIC MH 10720 [9]: <=0.1 μM
- MIC [10]: 0.8 µM (≈ 0.376 µg/mL)

SMILES: CSC(C)(C)C(NC(=O)c1ccc(C#Cc2ccc(CNCc3ccccc3)cc2)cc1)C(=O)NO (stereo not shown) [Compound 585]
- MIC [1]: 0.8 µM (≈ 0.401 µg/mL)
- MIC [2]: 0.8 µM (≈ 0.401 µg/mL)
- MIC [3]: 0.4 µM (≈ 0.201 µg/mL)
- MIC MH 12587 [4]: 1.6 µM (≈ 0.803 µg/mL)
- MIC PM 10775 [5]: <=0.1 μM
- MIC [6]: 0.8 µM (≈ 0.401 µg/mL)
- MIC [7]: 0.2 µM (≈ 0.1 µg/mL)
- MIC [8]: 0.4 µM (≈ 0.201 µg/mL)
- MIC [9]: 0.2 µM (≈ 0.1 µg/mL)
- MIC [10]: 1.6 µM (≈ 0.803 µg/mL)

SMILES: CSC(C)(C)[C@H](NC(=O)c1ccc(C#Cc2ccc(CNCc3cccnc3)cc2)cc1)C(=O)NO [Compound 593]
- MIC [1]: 0.4 µM (≈ 0.201 µg/mL)
- MIC [2]: 0.8 µM (≈ 0.402 µg/mL)
- MIC [3]: 0.2 µM (≈ 0.101 µg/mL)
- MIC MH 12587 [4]: 0.8 µM (≈ 0.402 µg/mL)
- MIC PM 10775 [5]: <=0.1 μM
- MIC [6]: 0.4 µM (≈ 0.201 µg/mL)
- MIC PM 6267 [7]: <=0.1 μM
- MIC [8]: 0.8 µM (≈ 0.402 µg/mL)
- MIC [9]: 0.2 µM (≈ 0.101 µg/mL)
- MIC [10]: 0.8 µM (≈ 0.402 µg/mL)

SMILES: C[C@@H](O)[C@H](NC(=O)c1ccc(C#Cc2ccc([N+](=O)[O-])cc2)cc1)C(=O)NO [Compound 243, N-[(1S,2R)-2-hydroxy-1-(hydroxycarbamoyl)propyI]-4-[2-(4-nitrophenyl)ethynyl]benzamide]
- MIC [1]: 0.4 µM (≈ 0.153 µg/mL)
- MIC [2]: 1.6 µM (≈ 0.613 µg/mL)
- MIC [3]: 0.2 µM (≈ 0.0767 µg/mL)
- MIC ([4]; Mannheimia haemolytica, read-out: MIC MH 12587): 0.8 µM (≈ 0.307 µg/mL)
- MIC ([5]; read-out: MIC PM 10775): ≤ 0.1 µM
- MIC [6]: 0.2 µM (≈ 0.0767 µg/mL)
- MIC [7]: ≤ 0.1 µM
- MIC ([8]; ATCC43137): 0.2 µM (≈ 0.0767 µg/mL)
- MIC [9]: ≤ 0.1 µM
- MIC ([10]; ATCC33396): 0.4 µM (≈ 0.153 µg/mL)
